Data as given in BindingDB's records for doi:10.1021/jm500763m (Beijing Institute of Pharmacology & Toxicology, 2014).
Square brackets hold non-standard residues; d marks the D form. Peptide text beside a SMILES is read from it. * marks the point of attachment. X1 = C=CCOC(=O)[C@]12CC[C@@H](C(=C)C)[C@@H]1[C@H]1CC[C@@H]3[C@@]4(C)CC[C@H](OC(=O)CCc5cn(CC(=O)*)nn5)C(C)(C)[C@@H]4CC[C@@]3(C)[C@]1(C)CC2; X5 = C=C(C)[C@@H]1CC[C@]2(C(=O)OCc3cn(CC(=O)*)nn3)CC[C@]3(C)[C@H](CC[C@@H]4[C@@]5(C)CC[C@H](OC(C)=O)C(C)(C)[C@@H]5CC[C@]43C)[C@@H]12; X8 = C[C@H]1[C@H](C)CC[C@]2(C(=O)O)CC[C@]3(C)C(=CC[C@@H]4[C@@]5(C)CC[C@H](OC(=O)CCc6cn(CC(=O)*)nn6)C(C)(C)[C@@H]5CC[C@]43C)[C@H]12; X4 = C=C(C)[C@@H]1CC[C@]2(C(=O)OCc3cn(CC(=O)*)nn3)CC[C@]3(C)[C@H](CC[C@@H]4[C@@]5(C)CC[C@H](O)C(C)(C)[C@@H]5CC[C@]43C)[C@@H]12; X7 = C[C@H]1[C@H](C)CC[C@]2(C(=O)OCc3cn(CC(=O)*)nn3)CC[C@]3(C)C(=CC[C@@H]4[C@@]5(C)CC[C@H](O)C(C)(C)[C@@H]5CC[C@]43C)[C@H]12; X6 = CC1(C)CC[C@]2(C(=O)O)CC[C@]3(C)C(=CC[C@@H]4[C@@]5(C)CC[C@H](OC(=O)CCc6cn(CC(=O)*)nn6)C(C)(C)[C@@H]5CC[C@]43C)[C@@H]2C1; X10 = CC1(C)CC[C@]2(C(=O)OCc3cn(CC(=O)*)nn3)CC[C@]3(C)C(=CC[C@@H]4[C@@]5(C)CC[C@H](O)C(C)(C)[C@@H]5CC[C@]43C)[C@@H]2C1; X11 = CCCc1cn(CC(=O)*)nn1; βAla = NCCC(=O)O

Experiments:
[1] = Inhibition of HIV1 gp41-induced cell-cell fusion between viral envelope expressing human HL2/3 cells to CD4/CCR5 receptor expressing TZM-bl cells compound preincubated for 1 hr measured after 48 hrs by prime/wash assay
[2] = Inhibition of HIV1 gp41-induced cell-cell fusion between viral envelope expressing human HL2/3 cells to CD4/CCR5 receptor expressing TZM-bl cells after 6 to 8 hrs by luciferase assay
[3] = Inhibition of HIV1 gp41-induced cell-cell fusion between viral envelope expressing human HL2/3 cells to CD4/CCR5 receptor expressing TZM-bl cells compound preincubated for 1 hr followed by wash out measured after 48 hrs by prime/wash assay

Compound | EC50 [1] [nM] | EC50 [2] [nM] | EC50 [3] [nM]
C=CCOC(=O)[C@]12CC[C@@H](C(=C)C)[C@@H]1[C@H]1CC[C@@H]3[C@@]4(C)CC[C@H](OC(=O)CCc5cn(CC(=O)NCCCC[C@H](NC(=O)CCNC(=O)[C@H](CC(C)C)NC(=O)[C@H](CC(C)C)NC(=O)[C@H](CCC(=O)O)NC(=O)[C@H](CCC(N)=O)NC(=O)[C@H](CCC(=O)O)NC(=O)[C@H](CC(N)=O)NC(=O)[C@H](CCCCN)NC(=O)[C@H](CCC(=O)O)NC(=O)[C@H](CCC(N)=O)NC(=O)[C@H](CCC(N)=O)NC(=O)[C@H](CC(N)=O)NC(=O)[C@H](CCC(N)=O)NC(=O)[C@H](CO)NC(=O)[C@H](CCC(=O)O)NC(=O)[C@H](CCC(=O)O)NC(=O)[C@@H](NC(=O)[C@H](CC(C)C)NC(=O)[C@H](CO)NC(=O)[C@H](Cc6cnc[nH]6)NC(=O)[C@@H](NC(=O)[C@H](CC(C)C)NC(=O)[C@H](CO)NC(=O)[C@@H](NC(=O)[C@H](Cc6ccc(O)cc6)NC(=O)[C@H](CC(N)=O)NC(=O)[C@H](CC(N)=O)NC(C)=O)[C@@H](C)O)[C@@H](C)CC)[C@@H](C)CC)C(N)=O)nn5)C(C)(C)[C@@H]4CC[C@@]3(C)[C@]1(C)CC2 (Ac-NNYTSLIHSLIEESQNQQEKNEQELL[βAla]K(X1)-NH2) | 13 | 3.9 | –
C=C(C)[C@@H]1CC[C@]2(C(=O)OCc3cn(CC(=O)NCCC(=O)N[C@@H](CC(N)=O)C(=O)N[C@@H](CC(N)=O)C(=O)N[C@@H](Cc4ccc(O)cc4)C(=O)N[C@H](C(=O)N[C@@H](CO)C(=O)N[C@@H](CC(C)C)C(=O)N[C@H](C(=O)N[C@@H](Cc4cnc[nH]4)C(=O)N[C@@H](CO)C(=O)N[C@@H](CC(C)C)C(=O)N[C@H](C(=O)N[C@@H](CCC(=O)O)C(=O)N[C@@H](CCC(=O)O)C(=O)N[C@@H](CO)C(=O)N[C@@H](CCC(N)=O)C(=O)N[C@@H](CC(N)=O)C(=O)N[C@@H](CCC(N)=O)C(=O)N[C@@H](CCC(N)=O)C(=O)N[C@@H](CCC(=O)O)C(=O)N[C@@H](CCCCN)C(=O)N[C@@H](CC(N)=O)C(=O)N[C@@H](CCC(=O)O)C(=O)N[C@@H](CCC(N)=O)C(=O)N[C@@H](CCC(=O)O)C(=O)N[C@@H](CC(C)C)C(=O)N[C@@H](CC(C)C)C(N)=O)[C@@H](C)CC)[C@@H](C)CC)[C@@H](C)O)nn3)CC[C@]3(C)[C@H](CC[C@@H]4[C@@]5(C)CC[C@H](O)C(C)(C)[C@@H]5CC[C@]43C)[C@@H]12 ({X4-βAla}-NNYTSLIHSLIEESQNQQEKNEQELL-NH2) | – | 89 | –
C=C(C)[C@@H]1CC[C@]2(C(=O)OCc3cn(CC(=O)NCCC(=O)N[C@@H](CC(N)=O)C(=O)N[C@@H](CC(N)=O)C(=O)N[C@@H](Cc4ccc(O)cc4)C(=O)N[C@H](C(=O)N[C@@H](CO)C(=O)N[C@@H](CC(C)C)C(=O)N[C@H](C(=O)N[C@@H](Cc4cnc[nH]4)C(=O)N[C@@H](CO)C(=O)N[C@@H](CC(C)C)C(=O)N[C@H](C(=O)N[C@@H](CCC(=O)O)C(=O)N[C@@H](CCC(=O)O)C(=O)N[C@@H](CO)C(=O)N[C@@H](CCC(N)=O)C(=O)N[C@@H](CC(N)=O)C(=O)N[C@@H](CCC(N)=O)C(=O)N[C@@H](CCC(N)=O)C(=O)N[C@@H](CCC(=O)O)C(=O)N[C@@H](CCCCN)C(=O)N[C@@H](CC(N)=O)C(=O)N[C@@H](CCC(=O)O)C(=O)N[C@@H](CCC(N)=O)C(=O)N[C@@H](CCC(=O)O)C(=O)N[C@@H](CC(C)C)C(=O)N[C@@H](CC(C)C)C(N)=O)[C@@H](C)CC)[C@@H](C)CC)[C@@H](C)O)nn3)CC[C@]3(C)[C@H](CC[C@@H]4[C@@]5(C)CC[C@H](OC(C)=O)C(C)(C)[C@@H]5CC[C@]43C)[C@@H]12 ({X5-βAla}-NNYTSLIHSLIEESQNQQEKNEQELL-NH2) | – | 327 | –
CC[C@H](C)[C@H](NC(=O)[C@H](CC(C)C)NC(=O)[C@H](CO)NC(=O)[C@H](Cc1cnc[nH]1)NC(=O)[C@@H](NC(=O)[C@H](CC(C)C)NC(=O)[C@H](CO)NC(=O)[C@@H](NC(=O)[C@H](Cc1ccc(O)cc1)NC(=O)[C@H](CC(N)=O)NC(=O)[C@H](CC(N)=O)NC(=O)CCNC(=O)Cn1cc(CCC(=O)O[C@H]2CC[C@]3(C)[C@H]4CC=C5[C@@H]6CC(C)(C)CC[C@]6(C(=O)O)CC[C@@]5(C)[C@]4(C)CC[C@H]3C2(C)C)nn1)[C@@H](C)O)[C@@H](C)CC)C(=O)N[C@@H](CCC(=O)O)C(=O)N[C@@H](CCC(=O)O)C(=O)N[C@@H](CO)C(=O)N[C@@H](CCC(N)=O)C(=O)N[C@@H](CC(N)=O)C(=O)N[C@@H](CCC(N)=O)C(=O)N[C@@H](CCC(N)=O)C(=O)N[C@@H](CCC(=O)O)C(=O)N[C@@H](CCCCN)C(=O)N[C@@H](CC(N)=O)C(=O)N[C@@H](CCC(=O)O)C(=O)N[C@@H](CCC(N)=O)C(=O)N[C@@H](CCC(=O)O)C(=O)N[C@@H](CC(C)C)C(=O)N[C@@H](CC(C)C)C(N)=O ({X6-βAla}-NNYTSLIHSLIEESQNQQEKNEQELL-NH2) | – | 29 | –
CC[C@H](C)[C@H](NC(=O)[C@H](CC(C)C)NC(=O)[C@H](CO)NC(=O)[C@H](Cc1cnc[nH]1)NC(=O)[C@@H](NC(=O)[C@H](CC(C)C)NC(=O)[C@H](CO)NC(=O)[C@@H](NC(=O)[C@H](Cc1ccc(O)cc1)NC(=O)[C@H](CC(N)=O)NC(=O)[C@H](CC(N)=O)NC(=O)CCNC(=O)Cn1cc(COC(=O)[C@]23CC[C@@H](C)[C@H](C)[C@H]2C2=CC[C@@H]4[C@@]5(C)CC[C@H](O)C(C)(C)[C@@H]5CC[C@@]4(C)[C@]2(C)CC3)nn1)[C@@H](C)O)[C@@H](C)CC)C(=O)N[C@@H](CCC(=O)O)C(=O)N[C@@H](CCC(=O)O)C(=O)N[C@@H](CO)C(=O)N[C@@H](CCC(N)=O)C(=O)N[C@@H](CC(N)=O)C(=O)N[C@@H](CCC(N)=O)C(=O)N[C@@H](CCC(N)=O)C(=O)N[C@@H](CCC(=O)O)C(=O)N[C@@H](CCCCN)C(=O)N[C@@H](CC(N)=O)C(=O)N[C@@H](CCC(=O)O)C(=O)N[C@@H](CCC(N)=O)C(=O)N[C@@H](CCC(=O)O)C(=O)N[C@@H](CC(C)C)C(=O)N[C@@H](CC(C)C)C(N)=O ({X7-βAla}-NNYTSLIHSLIEESQNQQEKNEQELL-NH2) | – | 145 | –
CC[C@H](C)[C@H](NC(=O)[C@H](CC(C)C)NC(=O)[C@H](CO)NC(=O)[C@H](Cc1cnc[nH]1)NC(=O)[C@@H](NC(=O)[C@H](CC(C)C)NC(=O)[C@H](CO)NC(=O)[C@@H](NC(=O)[C@H](Cc1ccc(O)cc1)NC(=O)[C@H](CC(N)=O)NC(=O)[C@H](CC(N)=O)NC(=O)CCNC(=O)Cn1cc(CCC(=O)O[C@H]2CC[C@]3(C)[C@H]4CC=C5[C@@H]6[C@@H](C)[C@H](C)CC[C@]6(C(=O)O)CC[C@@]5(C)[C@]4(C)CC[C@H]3C2(C)C)nn1)[C@@H](C)O)[C@@H](C)CC)C(=O)N[C@@H](CCC(=O)O)C(=O)N[C@@H](CCC(=O)O)C(=O)N[C@@H](CO)C(=O)N[C@@H](CCC(N)=O)C(=O)N[C@@H](CC(N)=O)C(=O)N[C@@H](CCC(N)=O)C(=O)N[C@@H](CCC(N)=O)C(=O)N[C@@H](CCC(=O)O)C(=O)N[C@@H](CCCCN)C(=O)N[C@@H](CC(N)=O)C(=O)N[C@@H](CCC(=O)O)C(=O)N[C@@H](CCC(N)=O)C(=O)N[C@@H](CCC(=O)O)C(=O)N[C@@H](CC(C)C)C(=O)N[C@@H](CC(C)C)C(N)=O ({X8-βAla}-NNYTSLIHSLIEESQNQQEKNEQELL-NH2) | – | 52 | –
CC[C@H](C)[C@H](NC(=O)[C@H](CC(C)C)NC(=O)[C@H](CO)NC(=O)[C@H](Cc1cnc[nH]1)NC(=O)[C@@H](NC(=O)[C@H](CC(C)C)NC(=O)[C@H](CO)NC(=O)[C@@H](NC(=O)[C@H](Cc1ccc(O)cc1)NC(=O)[C@H](CC(N)=O)NC(=O)[C@H](CC(N)=O)NC(=O)CCNC(=O)Cn1cc(COC(=O)[C@]23CCC(C)(C)C[C@H]2C2=CC[C@@H]4[C@@]5(C)CC[C@H](O)C(C)(C)[C@@H]5CC[C@@]4(C)[C@]2(C)CC3)nn1)[C@@H](C)O)[C@@H](C)CC)C(=O)N[C@@H](CCC(=O)O)C(=O)N[C@@H](CCC(=O)O)C(=O)N[C@@H](CO)C(=O)N[C@@H](CCC(N)=O)C(=O)N[C@@H](CC(N)=O)C(=O)N[C@@H](CCC(N)=O)C(=O)N[C@@H](CCC(N)=O)C(=O)N[C@@H](CCC(=O)O)C(=O)N[C@@H](CCCCN)C(=O)N[C@@H](CC(N)=O)C(=O)N[C@@H](CCC(=O)O)C(=O)N[C@@H](CCC(N)=O)C(=O)N[C@@H](CCC(=O)O)C(=O)N[C@@H](CC(C)C)C(=O)N[C@@H](CC(C)C)C(N)=O ({X10-βAla}-NNYTSLIHSLIEESQNQQEKNEQELL-NH2) | – | 176 | –
CCCc1cn(CC(=O)NCCC(=O)N[C@@H](CC(N)=O)C(=O)N[C@@H](CC(N)=O)C(=O)N[C@@H](Cc2ccc(O)cc2)C(=O)N[C@H](C(=O)N[C@@H](CO)C(=O)N[C@@H](CC(C)C)C(=O)N[C@H](C(=O)N[C@@H](Cc2cnc[nH]2)C(=O)N[C@@H](CO)C(=O)N[C@@H](CC(C)C)C(=O)N[C@H](C(=O)N[C@@H](CCC(=O)O)C(=O)N[C@@H](CCC(=O)O)C(=O)N[C@@H](CO)C(=O)N[C@@H](CCC(N)=O)C(=O)N[C@@H](CC(N)=O)C(=O)N[C@@H](CCC(N)=O)C(=O)N[C@@H](CCC(N)=O)C(=O)N[C@@H](CCC(=O)O)C(=O)N[C@@H](CCCCN)C(=O)N[C@@H](CC(N)=O)C(=O)N[C@@H](CCC(=O)O)C(=O)N[C@@H](CCC(N)=O)C(=O)N[C@@H](CCC(=O)O)C(=O)N[C@@H](CC(C)C)C(=O)N[C@@H](CC(C)C)C(N)=O)[C@@H](C)CC)[C@@H](C)CC)[C@@H](C)O)nn1 ({X11-βAla}-NNYTSLIHSLIEESQNQQEKNEQELL-NH2) | – | 3580 | –
C[C@H]1[C@H](C)CC[C@]2(C(=O)O)CC[C@]3(C)C(=CC[C@@H]4[C@@]5(C)CC[C@H](O)C(C)(C)[C@@H]5CC[C@]43C)[C@H]12 [3beta-hydroxyurs-12-en-28-oic acid] | – | > 100000 | –
CC1(C)CC[C@]2(C(=O)O)CC[C@]3(C)C(=CC[C@@H]4[C@@]5(C)CC[C@H](O)C(C)(C)[C@@H]5CC[C@]43C)[C@@H]2C1 [Oleanolic acid (OA)(Compound 1)] | – | > 100000 | –
enfuvirtide | 14 | 10 | 542
